From patent US11840686B2, “Modulation of prekallikrein (PKK) expression” (Ionis Pharmaceuticals, Inc., priority 2013, dated 2023)
Strand notation (5' to 3'): a small letter for the sugar, then the base; units joined by * are phosphorothioate-linked, units joined directly phosphodiester-linked; [ ] holds rarer units or linkages, { } end groups; capitals alone tell only the bases. e = 2'-O-(2-methoxyethyl) (MOE); [5mC] = 5-methylcytosine; d = 2'-deoxy (DNA)

What was measured:
[1] = test system: thrombus formation (platelet factor-4 mRNA); assay: FeCl3-induced inferior vena cava thrombosis model, PF-4 quantification (Example 19); type: in vivo, mouse; conditions: BALB/c mice; for PF-4 (percentage compared to PBS controls): FeCl3 vena cava
Method: Three groups of 8 male BALB/c mice were treated with 10 mg/kg, 20 mg/kg, or 40 mg/kg of ISIS 482584, administered subcutaneously twice a week for 3 weeks (weekly doses of 20 mg/kg, 40 mg/kg, or 80 mg/kg). Two control groups of 12 BALB/c mice each were treated with PBS, administered subcutaneously twice a week for 3 weeks. Two days after the last dose of antisense oligonucleotide or PBS, mice from all groups were anesthetized with 150 mg/kg ketamine mixed with 10 mg/kg xylazine, administered by intraperitoneal injection. Thrombus formation was induced with FeCl3 in all groups of anesthetized mice except the first control group.
In mice undergoing FeCl3 treatment, thrombus formation was induced by applying a piece of filter paper (2×4 mm) pre-saturated with 10% FeCl3 solution directly on the vena cava. After 3 minutes of exposure, the filter paper was removed. Thirty minutes after the filter paper application, a fixed length of the vein containing the thrombus was dissected out for platelet analysis. Liver was collected for RNA analysis.
Real-time PCR quantification of platelet factor-4 (PF-4) was used to quantify platelets in the vena cava as a measure of thrombus formation. PF-4 mRNA levels were measured using the murine primer probe set mPF4_LTS_00086 (forward sequence […], designated herein as SEQ ID NO: 2240; reverse sequence CGCAGCGACGCTCATG, designated herein as SEQ ID NO: 2241; probe sequence […], designated herein as SEQ ID NO: 2242). Results are presented as a percentage of PF-4 in ISIS oligonucleotide-treated mice, as compared to the two PBS-treated control groups. […] Therefore, reduction of PKK by the compound provided herein is useful for inhibiting thrombus formation.

[2] = test system: vascular leakage; assay: Vascular leakage, plasma Evans Blue OD620, basal model (Example 14); type: in vivo, mouse
Method: Groups 3, 4, 5, 6, 7, and 8 consisted of 8 mice each and were treated with 2.5 mg/kg, 5 mg/kg, 10 mg/kg, 20 mg/kg, 40 mg/kg, or 80 mg/kg (corresponding to 5 mg/kg, 10 mg/kg, 20 mg/kg, 40 mg/kg, 80 mg/kg, or 160 mg/kg per week), respectively of ISIS 482584 administered subcutaneously twice a week for 3 weeks. […] served as the experimental treatment groups for examining the effect of varying doses of ISIS 482584 on basal vascular permeability.
All the groups were then injected with 30 mg/kg of Evans Blue solution in the tail vein. The mice were sacrificed 30 min after the Evans Blue solution administration and colons, feet, and ears were harvested and examined for permeability defects. Blood samples were taken through cardiac puncture.
The blood drawn through cardiac puncture was immediately mixed with 3 times the volume of ice-cold ethanol. The solution was centrifuged at 15,000 g for 20 minutes at 4° C. to remove cell debris and precipitated plasma proteins. The ethanol extracts were further purified by ultra-filtration through a 10 kDa MWCO filter. The color intensity of the ethanol extracted plasma solution was then measured at OD620 nm. The results are presented in Table 70 as percentage increase or decrease of the OD values of the Group 1 PBS control. It was expected that treatment groups may display higher OD values due to reduced vascular leakage.

[3] = test system: murine PKK mRNA; assay: PKK mRNA in BALB/c mice liver (Example 10); type: in vivo, mouse; conditions: for % inhibition of PKK mRNA in BALB/c mice liver: twice a week for 3 weeks, relative to PBS control
Method: ISIS 482584 was tested for its effect on murine PKK mRNA in vivo.
(§1) Six groups of male BALB/c mice each were treated with 2.5 mg/kg, 5.0 mg/kg, 10.0 mg/kg, 20.0 mg/kg, 40.0 mg/kg, or 80.0 mg/kg of ISIS 482584, administered subcutaneously twice a week for 3 weeks (weekly doses of 5.0 mg/kg, 10.0 mg/kg, 20.0 mg/kg, 40.0 mg/kg, 80.0 mg/kg, or 160.0 mg/kg). A control group of BALB/c mice was treated with PBS, administered subcutaneously twice a week for 3 weeks. Two days after the last dose of antisense oligonucleotide or PBS, mice from all groups were anesthetized with 150 mg/kg ketamine mixed with 10 mg/kg xylazine, administered by intraperitoneal injection. Liver was collected for RNA analysis.
RNA was extracted from liver tissue for real-time PCR analysis of PKK. PKK mRNA levels were measured using the murine primer probe set (forward sequence […], designated herein as SEQ ID NO: 2231; reverse sequence […], designated herein as SEQ ID NO: 2232; probe sequence […], designated herein as SEQ ID NO: 2233). Results are presented as percent inhibition of PKK, relative to PBS control.

[4] = test system: PKK protein; assay: PKK protein in BALB/c mice plasma by immunoblot (Example 10); type: in vivo, mouse; conditions: for % inhibition of PKK protein in BALB/c mice plasma: twice a week for 3 weeks, relative to PBS control
Method: as §1
Plasma was collected in tubes containing sodium citrate as an anticoagulant. The samples were run on a 4-12% gradient SDS-polyacrylamide gel (Invitrogen), followed by immunoblotting with murine PKK antibody (R&D Systems). Blots were incubated with secondary fluorophore-labeled antibodies (LI-COR) and imaged in an Odyssey Imager (LI-COR). Results are presented as percent inhibition of PKK, relative to PBS control.

[5] = Hematological parameters in cynomolgus monkeys (Example 8); conditions: cynomolgus monkey, 40 mg/kg sc, day 87 or day 88
[6] = BALB/c mice, 2.5-80.0 mg/kg s.c. twice a week for 3 weeks, vs PBS

Question: With “ISIS 482584: 5-10-5 MOE gapmer targeting murine PKK, GGCATATTGGTTTTTGGAAT; SEQ ID NO: 2244 (antisense eG*eG*e[5mC]*eA*eT*dA*dT*dT*dG*dG*dT*dT*dT*dT*dT*eG*eG*eA*eA*eT)” as the substance, how does the “PF-4 (percentage compared to PBS controls)” value ([1]; 20 mg/kg/wk sc 3 weeks) read?
Answer: 62%

Question: And the “PF-4 (percentage compared to PBS controls)” value ([1]; 40 mg/kg/wk sc 3 weeks)?
Answer: 34%

Question: What about the “PF-4 (percentage compared to PBS controls)” value ([1]; 80 mg/kg/wk sc 3 weeks) of the same substance?
Answer: 25%

Question: What about the “PF-4 in vena cava” value ([1]; 10-40 mg/kg s.c. twice a week for 3 weeks, vs PBS control) of the same substance?
Answer: significant reduction of PF-4

Question: And the “Percentage of OD620 nm of Evans Blue dye compared to the PBS basal control, Plasma” value (“Percentage of OD620 nm of Evans Blue dye” for short) ([2]; 10 mg/kg/week)?
Answer: 36%

Question: What about the “Percentage of OD620 nm of Evans Blue dye” value ([2]; 20 mg/kg/week) of the same substance?
Answer: 56%

Question: What about the “Percentage of OD620 nm of Evans Blue dye” value ([2]; 40 mg/kg/week) of the same substance?
Answer: 83%

Question: What about the “Percentage of OD620 nm of Evans Blue dye” value ([2]; 80 mg/kg/week) of the same substance?
Answer: 93%

Question: What about the “Percentage of OD620 nm of Evans Blue dye” value ([2]; 160 mg/kg/week) of the same substance?
Answer: 95%

Question: What about the “% inhibition of PKK mRNA in BALB/c mice liver” value (shortened to “% inhibition of PKK mRNA”) ([3]; 5 mg/kg/wk sc) of the same substance?
Answer: 3%

Question: What about the “% inhibition of PKK mRNA” value ([3]; 10 mg/kg/wk sc) of the same substance?
Answer: 42%

Question: What about the “% inhibition of PKK mRNA” value ([3]; 20 mg/kg/wk sc) of the same substance?
Answer: 68%

Question: What about the “% inhibition of PKK mRNA” value ([3]; 40 mg/kg/wk sc) of the same substance?
Answer: 85%

Question: And the “% inhibition of PKK mRNA” value ([3]; 80 mg/kg/wk sc)?
Answer: 91%

Question: What about the “% inhibition of PKK mRNA” value ([3]; 160 mg/kg/wk sc) of the same substance?
Answer: 94%

Question: What about the “reduction of PKK mRNA in liver” value [3, 6] of the same substance?
Answer: significant dose-dependent reduction of PKK mRNA

Question: And the “% inhibition of PKK protein in BALB/c mice plasma” value (from here on “% inhibition of PKK protein”) ([4]; 5 mg/kg/wk sc)?
Answer: 5%

Question: What about the “% inhibition of PKK protein” value ([4]; 10 mg/kg/wk sc) of the same substance?
Answer: 24%

Question: And the “% inhibition of PKK protein” value ([4]; 20 mg/kg/wk sc)?
Answer: 47%

Question: And the “% inhibition of PKK protein” value ([4]; 40 mg/kg/wk sc)?
Answer: 76%

Question: And the “% inhibition of PKK protein” value ([4]; 80 mg/kg/wk sc)?
Answer: 81%

Question: What about the “reduction of PKK plasma protein” value [4, 6] of the same substance?
Answer: significant dose-dependent reduction of PKK plasma protein

Question: With “Tes Ges mCes Aes Aes Gds Tds mCds Tds mCds Tds Tds Gds Gds mCds Aes Aes Aes mCes Ae [ISIS 546254]” as the substance, how does the HCT [5] read?
Answer: 41%

Question: What about the Hemoglobin [5] of the same substance?
Answer: 12.4 g/dL

Question: What about the Platelets [5] of the same substance?
Answer: 436000 µL⁻¹

Question: And the RBC [5]?
Answer: 5.3e+06 µL⁻¹

Question: And the WBC [5]?
Answer: 11000 µL⁻¹
